The data set is described as follows: Human HepG2 cell viability assay in 384 well format. Particulars: HepG2 cells, read-out: Inhibition. It is filed as toxicity, cell-based. Set-up: dose 125 nL, time 70.5 hour; concentration not given beside the values.

We go through 70 compounds from ChEMBL document CHEMBL3507680, “University of Dundee, Gates Library screen for HepG2 cell viability”.

Each structure is given as a SMILES string.

Consider `O=C(NCCc1c[nH]c2ccccc12)C1(n2cnnn2)CCCCC1`, for which the cytotoxicity at 70.5 h was -28.6%.

Regarding `COc1cccc(NC(=O)Cn2c(=O)nc(N)c3cc(C)sc32)c1`, the cytotoxicity at 70.5 h is -17.3%. For `CCc1c(C)sc2nc3n(CC(N)=O)nc(SC)n3c(=O)c12`, the cytotoxicity at 70.5 h was determined as 5.38%. The value for `Cc1csc(NC(=O)c2ccc(NC(=O)N3CCOCC3)cc2)n1` was 3.47%; that for `CCc1c(C)sc2c1c(N)nc(=O)n2CCN1CCCCC1` was 5.23%; that for `C=C(C)Cn1c(=O)nc(N)c2c(-c3ccc(OC)cc3)csc21` was -9.64%. To `CCc1c(C)sc2nc3n(CCN4CCOCC4)nc(SC)n3c(=O)c12` belongs 5.28%; to `Cc1cc2c(N)nc(=O)n(CC(=O)Nc3cccc(Cl)c3)c2s1`, -13.3%. To `Cc1cc2c(N)nc(=O)n(CC(=O)Nc3ccccc3)c2s1` belongs 8.01%; to `Cc1occc(=O)c1OCC(=O)N1CCN(c2cccc(Cl)c2)CC1`, 2.39%; to `CC(C)c1ccc(C2CC(=O)Nc3c2cnn3C)cc1` (stereo not given), -15.6%. Turning to `Cn1ncc2c1NC(=O)CC2c1cccs1` (stereo not given), the cytotoxicity at 70.5 h is -4.29%.

As to `COCCNC(=O)CNC(=O)c1nc(Cc2c(Cl)cccc2Cl)no1`, the cytotoxicity at 70.5 h was -8.7%. To `Cc1cnc(NC(=O)c2csc(NC3CCCC3)n2)s1` belongs 43.8%; to `COc1cc(C2CC(=O)Nc3c2cnn3C)ccc1O` (stereo not given), 46.1%. `COCc1nnn2c1CN(C(=O)c1ccnnc1)CCC2`: the cytotoxicity at 70.5 h is 8.76%.

For the compound `O=C1[C@@H]2CCN(Cc3ccc(F)cc3)C[C@@H]2OCCN1c1cccnc1`, the cytotoxicity at 70.5 h is -3.72%. In the case of `Cc1ccc(N2CCC3(CCN(C(=O)C4CCOC4)CC3)CC2)nn1` (stereo not given), the cytotoxicity at 70.5 h was -3.84%. The value for `O=C(NC[C@H]1OC[C@@H]2CCN(c3ncccn3)C[C@@H]21)c1ccnnc1` was 1.23%; that for `O=S(=O)(C1CC1)N1CCn2c(Cn3cncn3)cnc2C1` was 0.357%. To `Cn1nc(CNC(=O)CC#N)c2c1CN(C(N)=O)CC2` belongs 11.4%. In the case of `Cc1cnc(N2CC(C(=O)N3CCOCC3)C3(CCOCC3)C2)nc1` (stereo not given), the cytotoxicity at 70.5 h was -3.59%.

As for `CC(=O)Nc1ccc2c(c1)C1(CCOCC1)C(=O)N2c1ccsc1`, the cytotoxicity at 70.5 h was -9.04%.

As to `CC(C)Nc1ccc2c(c1)C1(CCOCC1)C(=O)N2c1ccsc1`, the cytotoxicity at 70.5 h was -7.35%. As to `Cc1cnc(N2CCOC3(CCCN(c4ncccn4)C3)C2)nc1` (stereo not given), the cytotoxicity at 70.5 h is -4.18%. Consider `CCOCC1CN(c2ncc(F)cn2)Cc2cn(CC)nc21` (stereo not given), for which the cytotoxicity at 70.5 h is -11.1%. The value for `COCCN1C(=O)C2(CCC(C(=O)Nc3cccc(C)c3)CC2)N=C1C` (stereo not given) was -9.96%; that for `CC(C)NC(=O)N1CCOC2(CCCN(c3cccc(C#N)c3)C2)C1` (stereo not given) was -10.4%; that for `CCn1cc2c(n1)C(COCC1CC1)CN(c1ccc(C)nn1)C2` (stereo not given) was -16.7%.

With `O=C(C1CN(c2ncc(F)cn2)CC12CCOCC2)N1CCOCC1` (stereo not given), the cytotoxicity at 70.5 h is -9.96%. To `COCCN1C(=O)C2(CCC(C(=O)Nc3ccc(F)cc3)CC2)N=C1C` (stereo not given) belongs -7.58%; to `Cc1nnn2c1COC(CNCc1ccncc1)C2` (stereo not given), -15.7%. In the case of `O=C(NC1CCCC1)NC1CCc2[nH]c(=O)ccc2C1` (stereo not given), the cytotoxicity at 70.5 h was -7.5%. To `c1cc(CN2CCO[C@@H]3CNC[C@@H]32)cs1` belongs -2.99%; to `CC(C)N(C)Cc1cncc2c1CCN(C(=O)c1ccc[nH]1)C2`, -1.2%. The value for `CC(C)N(C)Cc1cncc2c1CCN(C(=O)c1cccc(C#N)c1)C2` was -4.95%; that for `CC(C)N(C)Cc1cncc2c1CCN(C(=O)c1ccccc1F)C2` was -1.95%. As for `O=C(NC1CC1)[C@H]1CN(Cc2ccc3c(c2)OCO3)C[C@H]2OCC[C@@H]12`, the cytotoxicity at 70.5 h is -1.23%. To `O=C1COC2(CCN(Cc3ccoc3)CC2)CN1CCn1cccn1` belongs -2.81%; to `Fc1cnc(N2CCc3nnc(COc4ccccn4)n3CC2)nc1`, -3.38%. To `CC(C)c1nc(-c2cc(C(=O)NCCN(C)C)c3ccccn23)cs1` belongs -1.61%; to `CN(C)Cc1nnc2n1CCN(c1cnccn1)CC2`, 0.405%.

Consider `Cc1ccc(N2CCC3(CCCN3Cc3ccn(C)n3)CC2)nn1`, for which the cytotoxicity at 70.5 h was -2.31%. Turning to `OCCOCc1n[nH]c2c1CN(Cc1ccco1)C2`, the cytotoxicity at 70.5 h was found to be 12.9%. The value for `CC(C)C(=O)N1CCCC2(CCCN2CC2CCCC2)C1` (stereo not given) was -2.41%. As for `O=C(c1ccc2[nH]ccc2c1)N1Cc2nc(CN3CCCCC3)oc2C1`, the cytotoxicity at 70.5 h is -3.84%. To `COCC1CC2(CCN(C(N)=O)CC2)CN1Cc1csc(C)n1` (stereo not given) belongs -3.74%. To `Cc1nc(CN2C[C@@H]3CN(c4ncc(F)cn4)C[C@@H]3C2=O)cs1` belongs -10.5%; to `O=C(C1CN(c2ncc(F)cn2)CC12CCOCC2)N1CC=CC1` (stereo not given), -5.64%. Take `Cc1cccc(N2CC3(CCN(S(=O)(=O)C4CC4)C3)C2)n1`: the cytotoxicity at 70.5 h is -6.18%.

Consider `CCN1C[C@H]2C3(CCN(S(=O)(=O)CC)CC3)CC[C@@]2(C(=O)N(C)C)C1`, for which the cytotoxicity at 70.5 h was -4.85%. On to `Cc1cnc(N2C[C@H]3CN(Cc4csc(C)n4)C(=O)[C@H]3C2)nc1`, for which the cytotoxicity at 70.5 h is -9.66%.

Take `CC(C)c1cc(C(=O)N2CCOC3(CCNCC3)C2)no1`: the cytotoxicity at 70.5 h was -5.65%. The value for `CCS(=O)(=O)N1CCC2(CC1)CC[C@@]1(C(=O)N(C)C)CN(C)C[C@@H]21` was -15.2%. To `CC(=O)N1CCCC2(C1)CN(c1ncc(C)cn1)CCO2` (stereo not given) belongs -17.1%. The value for `Cc1cc(CNCC2Cn3nnc(C)c3CO2)oc1C` (stereo not given) was -7.06%; that for `Cc1ccc(CN2C[C@@H]3CN(c4ncccn4)C[C@@H]3C2)cc1` was -4.24%; that for `N#Cc1cccc(C(=O)N2CCc3c(COCC4CC4)cncc3C2)c1` was -17.6%. With `CCn1ncc2c1C(COCC1CC1)N(Cc1nccs1)CC2` (stereo not given), the cytotoxicity at 70.5 h is -0.956%. Consider `c1cncc(COCc2n[nH]c3c2CN(Cc2ccco2)C3)c1`, for which the cytotoxicity at 70.5 h was -1.5%. For the compound `COc1ccc(CN2CCc3c(CNC(=O)CC#N)nn(C)c3C2)cc1`, the cytotoxicity at 70.5 h was -1.4%. Consider `CN1CCCn2c(nc(CNC(=O)c3nccn3C)cc2=O)C1`, for which the cytotoxicity at 70.5 h was -1.89%. The value for `CCN1CCC2(CC1)CC(COC)N(Cc1csc(C)n1)C2` (stereo not given) was -5.79%; that for `COCC1CC2(CCN(CC3CC3)CC2)CN1Cc1csc(C)n1` (stereo not given) was -5.11%. To `COCC1CC2(CCNCC2)CN1Cc1csc(C)n1` (stereo not given) belongs -8.39%; to `Cc1nc(Cn2c3c(ccc2=O)CCN(CC2CC2)CC3)cs1`, -2.72%; to `CN(C)[C@@H]1COC[C@@H]2CN(Cc3ccc4c(c3)OCO4)C[C@@H]21`, -3.34%.

On to `CCn1ncc2c1C(COCC1CC1)N(Cc1cnn(C)c1)CC2` (stereo not given), for which the cytotoxicity at 70.5 h is -3.67%.

With `Cc1cnc2n1CCN(C)C21CCN(CC2CC2)CC1`, the cytotoxicity at 70.5 h was -0.923%. Turning to `Cc1ccc(-c2cnc3n2CCN(C)C32CCN(CC3CC3)CC2)cc1`, the cytotoxicity at 70.5 h was -1.92%.
